The results in this text go back to ChEMBL document CHEMBL1201862, “PubChem BioAssay data set” (2004).

Experiment [1] in a line: Luminescence Cell-Based Dose Confirmation HTS to Identify Activators of 5'UTR Stem-Loop Driven Alpha-Synuclein mRNA Translation in H4 Neuroglioblastoma Cells. [Related pubchem assays: 1829 (Project Summary), 1814 (Primary HTS)]. It counts as functional.
A short description of experiment [2]: Luminescence Cell-Based Dose Response HTS to Identify Activators of Luciferase Translation or Activity in H4 […] Cells. [Related pubchem assays: 1829 (Project Summary), 1814 (Primary HTS)]. It counts as functional.
Another experiment has as its system H4. Briefly: Luminescence Cell-Based Dose Response HTS to Identify Activators of 5'UTR Stem-Loop Driven Prion Protein mRNA Translation in H4 Neuroglioblastoma Cells. [Related pubchem assays: 1829 (Project Summary), 1814 (Primary HTS)]. The following applies: Homo sapiens. It is filed as functional.
The target in experiment [3] is T1, Corticotropin-releasing factor receptor 2/Corticotropin-releasing factor-binding protein (Homo sapiens, UniProt P24387+Q13324).
T1 sequence (Q13324 whole entry): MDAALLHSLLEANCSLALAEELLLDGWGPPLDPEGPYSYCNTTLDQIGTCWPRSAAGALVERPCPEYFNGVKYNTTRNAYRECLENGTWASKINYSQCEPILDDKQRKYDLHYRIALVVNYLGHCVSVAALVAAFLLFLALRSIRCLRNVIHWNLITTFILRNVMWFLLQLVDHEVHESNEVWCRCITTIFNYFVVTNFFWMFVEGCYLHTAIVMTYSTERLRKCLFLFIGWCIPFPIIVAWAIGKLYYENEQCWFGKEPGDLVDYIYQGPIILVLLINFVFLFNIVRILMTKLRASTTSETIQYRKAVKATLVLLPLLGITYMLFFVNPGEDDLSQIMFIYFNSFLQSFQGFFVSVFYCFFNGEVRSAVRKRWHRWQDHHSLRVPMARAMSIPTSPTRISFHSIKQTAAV
T1 sequence (P24387 whole entry): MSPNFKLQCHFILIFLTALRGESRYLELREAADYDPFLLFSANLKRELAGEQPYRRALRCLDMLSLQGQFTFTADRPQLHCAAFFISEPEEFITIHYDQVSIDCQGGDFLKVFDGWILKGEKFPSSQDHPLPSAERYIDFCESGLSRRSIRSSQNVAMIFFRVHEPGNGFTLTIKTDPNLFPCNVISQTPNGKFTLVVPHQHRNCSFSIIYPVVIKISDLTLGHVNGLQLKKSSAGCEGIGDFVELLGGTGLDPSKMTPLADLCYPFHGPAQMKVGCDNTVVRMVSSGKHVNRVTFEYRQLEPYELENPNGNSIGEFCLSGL
Briefly: Dose Response confirmation of uHTS hits for small molecule antagonists of the CRF-binding protein and CRF-R2 receptor complex. The following applies: read-out: IC50_Mean. It counts as functional.

Experiment [4] concerns the target T1, Corticotropin-releasing factor receptor 2/Corticotropin-releasing factor-binding protein. Kind of experiment: activators of CRF receptor 2 with binding protein – uHTS hits, confirmation (AID 602473). It counts as functional. Conditions: read-out: EC50_Mean.
In experiment [5] the target is T2, Zinc finger protein mex-5 (Caenorhabditis elegans, UniProt Q9XUB2).
T2 sequence (Q9XUB2 whole entry): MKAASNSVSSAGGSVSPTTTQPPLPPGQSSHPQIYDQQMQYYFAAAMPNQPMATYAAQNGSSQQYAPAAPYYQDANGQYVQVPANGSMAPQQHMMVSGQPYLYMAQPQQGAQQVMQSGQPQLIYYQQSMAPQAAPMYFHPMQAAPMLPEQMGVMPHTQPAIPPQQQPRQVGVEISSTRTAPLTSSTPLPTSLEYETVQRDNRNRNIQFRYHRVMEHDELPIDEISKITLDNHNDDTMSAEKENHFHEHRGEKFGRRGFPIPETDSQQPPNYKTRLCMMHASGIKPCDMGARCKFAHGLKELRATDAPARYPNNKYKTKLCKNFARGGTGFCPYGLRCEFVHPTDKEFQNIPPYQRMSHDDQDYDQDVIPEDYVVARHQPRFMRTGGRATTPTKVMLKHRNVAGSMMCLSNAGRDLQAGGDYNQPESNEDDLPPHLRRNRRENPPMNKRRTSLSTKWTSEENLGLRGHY
Kind of experiment: MEX-5/TCR-2 RNA interaction inhibitors, dose response, biochemical, C. elegans, fluorescence polarization (AID 1960).

Experiment [6] concerns the target T3, RNA-binding protein pos-1 (Caenorhabditis elegans, UniProt G5EF15).
T3 sequence (G5EF15 whole entry): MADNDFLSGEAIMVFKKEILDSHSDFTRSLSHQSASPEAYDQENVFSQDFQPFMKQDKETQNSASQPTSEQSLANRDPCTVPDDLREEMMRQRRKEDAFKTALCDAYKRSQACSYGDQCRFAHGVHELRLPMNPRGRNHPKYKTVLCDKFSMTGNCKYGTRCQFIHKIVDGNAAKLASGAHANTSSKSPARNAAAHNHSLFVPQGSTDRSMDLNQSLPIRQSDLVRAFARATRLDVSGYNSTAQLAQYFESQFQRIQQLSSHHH
Kind of experiment: inhibitors of POS-1/mex-3 RNA binding, dose response, biochemical, fluorescence polarization (AID 1964).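 Note: purified POS-1 fused to maltose binding protein made in E. coli; potency of compounds blocking POS-1 binding to fluorescent RNA.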 Background: Polarisation of emitted light reports the rotation of a fluorescent probe.

A short description of experiment [7]: C. albicans growth with fluconazole, confirmation, fluorescence, retest (AID 2467). It is filed as functional, cell-based.
Experiment [8] can be described thus: NIH-3T3 fibroblast cytotoxicity, dose response, cytotoxicity control, cell-based, fluorescence, Alamar Blue, secondary assay (AID 2327).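 Note: NIH-3T3 mouse fibroblasts cultured with fluconazole at 8 µg/mL.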 It counts as functional.
The nature of experiment [9]: cytotoxicity toward NIH3T3 fibroblasts, dose response, counter-screen, cell-based, ATP luminescence, mouse fibroblasts (AID 2010).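 Note: cells exposed to compound for about 90 hours before reading.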 It is filed as functional. Background: A counterscreen serves to expose hits that act by an unwanted route or on another target.
In a further experiment the test system is Streptococcus. Kind of experiment: Group A Streptococcus viability loss, dose response, counter-screen for streptokinase expression inhibitor project, luminescence, BacTiterGlo (AID 1915).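 Note: potency for reduction of bacterial viability or growth.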 It is filed as functional, organism-based.
Experiment [10] concerns Streptococcus sp. 'group A'. Kind of experiment: growth inhibition of control SK(-) GAS strain, dose response, counter-screen for streptokinase expression inhibitor project, luminescence, kanamycin, BacTiterGlo, confirmation (AID 1900). It is filed as functional, organism-based.
A short description of experiment [11]: inhibitors of intracellular T. cruzi replication, confirmation, NIH3T3 host cells, beta-gal luminescence (AID 2044).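 Note: intracellular parasites grown in NIH/3T3 mouse fibroblasts as host cells; luminescent beta-galactosidase reporter signal from transgenic T. cruzi replicating inside host cells; inhibitors lower the luminescence signal.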 It is filed as functional, cell-based.
A further experiment has as its target T4, Streptokinase A (Streptococcus pyogenes serotype M1, UniProt P10520).
T4 sequence (P10520 whole entry): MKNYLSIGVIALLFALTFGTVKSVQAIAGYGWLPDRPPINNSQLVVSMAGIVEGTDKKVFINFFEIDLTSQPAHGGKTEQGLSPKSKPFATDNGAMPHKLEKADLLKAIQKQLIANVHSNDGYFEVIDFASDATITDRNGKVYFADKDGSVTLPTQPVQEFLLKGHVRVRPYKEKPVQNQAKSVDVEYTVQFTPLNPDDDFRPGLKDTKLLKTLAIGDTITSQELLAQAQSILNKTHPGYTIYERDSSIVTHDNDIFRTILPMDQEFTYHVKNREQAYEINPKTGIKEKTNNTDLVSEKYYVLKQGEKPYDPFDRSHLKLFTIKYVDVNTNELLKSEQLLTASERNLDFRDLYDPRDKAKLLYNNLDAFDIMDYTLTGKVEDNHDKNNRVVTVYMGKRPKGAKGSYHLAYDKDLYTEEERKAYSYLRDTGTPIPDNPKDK
Briefly: S. pyogenes streptokinase expression inhibitors, potency, dose response, plasminogen activation absorbance, OD405 (AID 1914).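 Note: secreted streptokinase activity via plasminogen activation per viability signal from cell pellet.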 It counts as functional, Streptococcus pyogenes M1 GAS.

The source made the active and inactive calls. Cut-off read from the data, not from the text of the source, for most assays here: actives have a measured EC50 and inactives only a lower limit.

On to `O=C(c1cn(-c2ccc(Cl)c(Cl)c2)nn1)C1CC1`, for which the EC50 in experiment [1] is 7.57 µM (active); in experiment [2], 10.6 µM (active); with H4, > 60 µM (not active).

Consider `O=C(Nc1ccc(N2CCCCCC2)cc1)c1ccccc1Cl`, for which the IC50 in experiment [3] was > 47.1 µM (inactive). For the same compound, the EC50 in experiment [4] is > 53 µM (inactive).

Regarding `N#CCC(N)=C(C#N)C#N`, the results for the EC50 in [5] and in experiment [6] were 169 µM (active) and 54.9 µM (active), respectively.

As for `CCOc1ccc2c(c1)=C(NN1C(=O)c3ccccc3C1=O)C(=O)N=2`, the IC50 in experiment [3] was > 47.1 µM (inactive). In addition, in experiment [4], the EC50 was > 53 µM (inactive).

As to `COc1ccc(-c2cc3ccc(OCC(N)=O)cc3oc2=O)cc1OC`, the EC50 in [5] and in [6] was > 300 µM (not active) each time.

For `Cc1nc2ccc(NC(=O)CCC3CCCC3)cc2s1`, the results for the EC50 (in experiment [1]; in experiment [2]; in the experiment with H4) were 10.7 µM (active), 28.8 µM (active) and 15.2 µM (active), respectively.

On to `CCN1C(=O)C(=C2C=C(C)OC(C)=C2)C(=O)N(CC)C1=S`, for which the EC50 (in [1]; in experiment [2]; in the experiment on H4) was > 120 µM (not active) throughout.

Take `O=S(=O)(c1cccc(-c2csc(-c3cccnc3)n2)c1)N1CCOCC1`: the EC50 in experiment [5] and in experiment [6] was > 300 µM (not active) each time.

As for `CCOC(=O)c1cc(C(=O)OCC)cc(-n2c(C)cc(C(=O)CN3CCOCC3)c2C)c1`, the EC50 in [5] and in experiment [6] was > 300 µM (not active) each time.

In the case of `Cn1c(C(=O)NC2CCCCC2)cc2c(=O)n3ccccc3nc21`, the results for the EC50 (in experiment [1]; in [2]; in the experiment on H4) were > 120 µM (not active), 8.85 µM (active) and 29.3 µM (active), respectively.

Consider `CN1/C(=C/C=C(C#N)C#N)C(C)(C)c2ccccc21`, for which the figures for the EC50 in experiment [5] and in experiment [6] were > 300 µM (inconclusive) and 248 µM (active), respectively.

With `CC(C(=O)c1ccccc1)[n+]1cccc(Br)c1` (stereo not drawn), the figures for the EC50 in experiment [7] and in experiment [8] were > 38 µM (not active) and > 150 µM (inactive), respectively.

On to `COc1ccc(N2C(=O)CC(c3ccc([N+](=O)[O-])cc3)C2=O)cc1` (stereo not drawn), for which the IC50 in experiment [3] is > 47.1 µM (inactive). Besides, in [4], the EC50 is > 53 µM (inactive).

As to `Cn1c(SCc2ccccc2F)nnc1-c1cnccn1`, the EC50 in experiment [1] was 0.166 µM (active); in [2], 35.2 µM (active); in the experiment with H4, 4.22 µM (active).

On to `COc1cc(C(=O)NNC(=S)NC(=O)c2ccc(F)cc2)cc(OC)c1OC`, for which the EC50 in experiment [9] was 14.9 µM (active); in the experiment with Streptococcus, 15.5 µM (active); in [10], 3.25 µM (active); in [11] it was 0.791 µM (active); on Streptokinase A, > 150 µM (not active).

Consider `O=C(CSc1ccccc1)N(c1ccc(Br)cc1)c1nccs1`, for which, in experiment [3], the IC50 is > 47.1 µM (inactive). In [4], the EC50 is > 53 µM (inactive).

With `CNC(=O)c1c(NC(=O)c2ccc(S(=O)(=O)N3CCCCC3C)cc2)sc2c1CCN(C)C2` (stereo not drawn), the EC50 in experiment [5] and in [6] was > 300 µM (not active) each time.

`COc1ccc(NC(=O)c2ccc(-c3csc(C)n3)cc2)cc1`: the values for the EC50 (in [1]; in [2]; in the experiment with H4) were 3.97 µM (active), 1.24 µM (active) and > 120 µM (not active), respectively.

Turning to `COc1cc(NC(=O)CSc2nc3ncnc(N)c3[nH]2)c(C(=O)O)cc1OC`, the figures for the EC50 in experiment [5] and in experiment [6] were 30.3 µM (active) and 29.2 µM (active), respectively.

Take `N#CC1=C(N)OC2=C(C(=O)CCC2)C1c1ccccc1` (stereo not drawn): the EC50 in experiment [5] and in experiment [6] was > 300 µM (not active) each time.

Regarding `COc1ccc(C2=NCN(c3ccc(C)cc3)C(S)=N2)cc1`, the EC50 was 6.32 µM (active) in experiment [1], > 120 µM (not active) in [2] and 7.4 µM (active) with H4.

In the case of `O=[N+]([O-])c1ccc2c(c1)C(O)n1nc(-c3ccccc3)nc1S2` (stereo not drawn), the EC50 (in experiment [1]; in [2]; in the experiment on H4) was > 120 µM (not active) each time.

As to `O=C(NCC1CCCO1)C(c1ccc(F)cc1)N(Cc1ccc(F)cc1)C(=O)Cn1nnc(-c2cccs2)n1` (stereo not drawn), the EC50 is > 38 µM (not active) in [7] and > 160 µM (inactive) in experiment [8].

`COC(=O)c1cc(C)sc1NC(=O)c1cccnc1`: the figures for the EC50 in experiment [7] and in experiment [8] were > 38 µM (not active) and 62.4 µM (active), respectively.

As for `CCn1c(=O)n(CC(=O)N2CCN(c3ccccc3F)CC2)c(=O)c2ccccc21`, the EC50 in experiment [7] was > 38 µM (not active); in experiment [8], > 160 µM (inactive).

Take `CCSc1nc2ccccc2n1CC(=O)N1CCCCC1`: in experiment [3], the IC50 is > 47.1 µM (inactive). In experiment [4], the EC50 was > 53 µM (inactive).

On to `COc1ccccc1N1CCN(Cc2c(F)cccc2Cl)CC1`, for which, in experiment [3], the IC50 is > 47.1 µM (inactive). In addition, the EC50 in experiment [4] was > 53 µM (inactive).

As for `CCOc1ccc(/C=C(\C#N)C(=O)NC2CC2)c(OCC)c1`, the IC50 in experiment [3] was > 47.1 µM (inactive). Also, the EC50 in experiment [4] is > 53 µM (inactive).

Take `CC(C)NC(=O)CN1C(=O)CSc2ccc(S(=O)(=O)N3CCCC3)cc21`: the IC50 in experiment [3] is > 47.1 µM (inactive). In addition, the EC50 in experiment [4] was > 53 µM (inactive).

Take `COc1cc(OC)cc(C(=O)Nc2ccc(S(=O)(=O)Nc3cnc4ccccc4n3)cc2)c1`: the IC50 in experiment [3] is > 47.1 µM (inactive). Besides, the EC50 in experiment [4] is > 53 µM (inactive).

Regarding `O=[N+]([O-])c1cccc(/C=N/NC2=NCCCCC2)c1`, the IC50 in [3] is > 47.1 µM (inactive). In addition, the EC50 in experiment [4] was > 53 µM (inactive).
